Experimental data as given in patent US20040253243A1, “Aptamer therapeutics useful in ocular pharmacotherapy” (priority 2003, published 2004).
{3T} = T cap written 3T / [3'T]; {NH2} = amine group; m = 2'-O-methyl; r = 2'-OH (RNA); f = 2'-fluoro

Assays:
[1] = molecular target: T1, TGFβ2 (Homo sapiens, UniProt P61812); assay: Dot blot binding of doped reselection aptamers to TGFβ2; set-up: For bio-chemical characterization of these aptamers, two forms of mature TGFβ2 were generated, native and N-terminal his-tagged versions, in E. coli; settings: CW128_103
T1 sequence (P61812 303-414 limits assumed): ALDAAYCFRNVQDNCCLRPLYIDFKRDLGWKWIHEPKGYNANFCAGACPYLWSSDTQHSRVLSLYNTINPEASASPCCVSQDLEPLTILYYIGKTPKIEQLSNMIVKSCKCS
Description: TGFβ2 was serially diluted in DPBS containing 0.2 mg/ml BSA and 0.2 mg/ml tRNA. ^32P-labeled RNA (<20 pM) were incubated with TGFβ2 at room temperature for 30 min. Samples were pipetted with a multichannel pippetor onto a multiwell manifold holding layers of pre-wetted 0.45 micron nitrocellulose, hybond membrane, 3MM filter paper (the order is from top to bottom), aspirated, and washed 3× with DPBS (containing tRNA). All three filters were air dried, exposed to phosphorimager plate, analyzed by ImageQuant.

[2] = molecular target: T1, TGFβ2; assay: Nitrocellulose-filter partitioning binding of 32P-labeled aptamer to TGFβ-2 protein; set-up: A synthetic polynucleotide encoding full length human TGFβ2 mature protein was cloned into pRSET E. coli expression vector; made in house
Description: Dissociation constants for the binding of aptamers to purified human or rodent TGFβ-2 protein were determined by nitrocellulose-filter partitioning using ^32P-labeled RNA. In vitro transcribed RNA was treated with calf-intestinal alkaline phophatase (New England Biolabs) to remove 5′-triphosphates, then radio-labeled by incubation with γ-^32P-ATP and T4 polynucleotide kinase (New England Biolabs). Unincorporated label was removed by gel-filtration, and the RNAs were further purified by polyacrylamide gel electrophoresis (PAGE). Purified ^32P-labeled aptamer in water was refolded just prior to use by heating for 3 min at 95° C., followed by a 10 minute room-temperature incubation in binding buffer (50 mM Hepes, pH 7.4, 1 mM MgCl2, 1 mM CaCl2, 3 mM KCl, 140 mM NaCl, 0.1 mg/ml BSA, 0.01 mg/ml tRNA). The binding reactions (100 μL) were initiated by the addition of aptamer (≦0.1 nM) to excess TGFβ-2 protein (0.2-100 nM), followed by 10-30 minute equilibration at room temperature.
Nitrocellulose-filter partitioning was performed on Minifold® I, 96-well Dot-Blot manifolds (Schleicher & Schuell). Protein-bound aptamer and residual free aptamer were captured, respectively, on pre-wetted Protran nitrocellulose (Schleicher & Schuell) and Hybond-P polyvinylidene difluoride (Amersham Biosciences) filters by vacuum aspiration, and quantified by PhosphorImager (Amersham Biosciences). The proportion of protein-bound aptamer at each TGFβ-2 concentration was plotted as the ratio of counts-per-minute on the Protran nitrocellulose filter (CPMNC) to the sum of CPM on the Protran and Hybond-P filters (CPMtotal). Estimates of dissociation constants (KD) were obtained from a fit of the concentration of TGFβ-2 (i.e., [TGFβ-2])-dependent data to a standard binding isotherm: CPMNC/CPMtotal=Cmax/(1+KD/[TGFβ2]total), where Cmax equals the maximum observed value of CPMNC/CPMtotal at saturating [TGFβ-2], likely reflecting the proportion of properly-folded aptamer that is competent to recognize TGFβ-2.

[3] = molecular target: T2, human TGFβ2 (Homo sapiens, UniProt P61812); assay: MLEC proliferation assay (reversal of TGFβ2-mediated inhibition, BrdU); assay type: cell-based
T2 construct: two forms of mature TGFβ2 were generated, native and N-terminal his-tagged versions, in E. coli; made in house; host or cells: E. coli; added as soluble protein to MLEC
T2 sequence (P61812 303-414): T1 sequence (P61812 303-414 limits assumed)
Description: MLECs were plated at 2,000 cells per well and incubated at 37° C. for 4 hours. Aptamer and TGFβ2 were added at the indicated concentrations for 16 hours at 37° C. Cell proliferation was measured using BrdU incorporation. BrdU assay was performed as recommended by the manufacturer (Roche Diagnostics).
MLEC Assay. The mink lung epithelial cell proliferation assay is performed over two days. On day 1:1) media is aspirated off from Mink Lung Epithelial Cells (MLEC); 2) the MLEC are washed with 10 ml 1×PBS; 3) 3 ml Trypsin is added and Trypsinize for 3 min at 37° C.; 4) quench with 10 ml 0.5% FBS media; 5) spin at 1000 rpm for 3.30 min; 6) aspirate off supernatant; 7) resuspend pellet in 10 ml 0.5% FBS media; 8) Count 10 μl cell suspension; 9) adjust cell density to 80,000 cells/ml; 10) add 50 μl of cells/well to black bottomed 96-well plates (4000 cells/well); pipet up and down during plating process to avoid settling of cells and uneven plating; 11) incubate cells at 37° C. in 5% CO2 for 4 hrs to allow adherence of cells; 12) add 25 μl of aptamer (or media, or other test reagent, such as for example, an antibody), preferably the outer wells are not used for treated cells; 13) add 25 μl of TGFβ2 (typically 25 pg/ml); and 14) incubate cells at 37° C. in 5% CO2 overnight.
On day 2:1) mix 20 μl BrdU with 2 ml 0.5% FBS media; 2) add 10 μl of BrdU mixture/well; 3) incubate cells at 37° C. in 5% CO2 for 3 hrs; 4) remove media and blot plates dry on paper towels; 5) add 200 μl/well FixDenat solution and incubate for 30 min at room temperature (RT); 6) remove FixDenat solution and blot plates dry on paper towels; 7) add 100 μl /well anti-BrdU POD solution and incubate for 90 min at RT; 8) remove anti-BrdU POD solution and blot plates dry on paper towels; 9) wash plates 3× with […] washing solution with 5 min RT incubations and blot plates dry on paper towels; 10) add 100 μl /well substrate solution and incubate for 3 min at RT in dark; and 11) read plates using PSP Luciferace 1 program on TopCount (Packard Bioscience Co., Downers Grove, Ill.).

| Substance | Kd [1] [nM] | other results |
| --- | --- | --- |
| GAfCAGAGfUAfUfUAfUAGAGfUAfUGfUAfUAGfCfUAfUAfCfUGfU[3T] (GACAGAGUAUUAUAGAGUAUGUAUAGCUAUACUGU; 2'-fluoro at CU, RNA at AG, 3' {3T}, backbone not given here) [ARC284, minimized S5R8-45] | 0.11 |  |
| AfCAGAGfUAfUfUAfUAGAGfUAfUGfUAfUAGfCfUAfUAfCfUGfUfC[3T] (ACAGAGUAUUAUAGAGUAUGUAUAGCUAUACUGUC; 2'-fluoro at CU, RNA at AG, 3' {3T}, backbone not given here) [ARC283, minimized S5CR8-45] | 1.27 |  |
| AAGGAGfUAfUfUAfUAGAGfUAfUGfUAfUAGfCfUAfUAfCfCAfU[3T] (AAGGAGUAUUAUAGAGUAUGUAUAGCUAUACCAU; 2'-fluoro at CU, RNA at AG, 3' {3T}, backbone not given here) [ARC281, minimized S5CR12-15] | 1.42 |  |
| AfUAGAGfCAfUfUAfUAGAGfUAfUGfUAfUAGfCfUAfUAfCfUAfU[3T] (AUAGAGCAUUAUAGAGUAUGUAUAGCUAUACUAU; 2'-fluoro at CU, RNA at AG, 3' {3T}, backbone not given here) [CW128.10.F, minimized AMX(71)_C11] | 3.66 |  |
| 5′-NH2-GGAGGfUfUAfUfUAfCAGAGfUfCfUGfUAfUAGfCfUGfUAfCfUfCfC-3T-3′ (GGAGGUUAUUACAGAGUCUGUAUAGCUGUACUCC; 2'-fluoro at CU, RNA at AG, 5' {NH2}, 3' {3T}, backbone not given here) [ARC78] |  | Kd ([2]; 32P-labeled aptamer, nitrocellulose-filter partitioning, fit to Equation 1, read-out: Kd): 4 nM; inhibition of the antiproliferative effects of TGFβ2 ([3]; 50 pg/ml of TGFβ2, BrdU incorporation): inhibit the antiproliferative effects of 50 pg/ml of TGFβ2 |
| 5′-mGmGmAmGmGfUfUAfUfUmAfCmAmGmAmGfUfCfUGfUAfUAmGfCfUmGfUmAfCfUfCfc-3T-3′ (GGAGGUUAUUACAGAGUCUGUAUAGCUGUACUCC; sugars from the 5' end mmmmmffrffmfmmmmfffrfrfrmffmfmffff, 3' {3T}, backbone not given here) [ARC79] |  | Kd ([2]; read-out: KD): 1 nM; IC50 ([3]; read-out: cell IC50): 10 nM |
| AGGGAAfUAfUfUAfUAGAGfUAfUGfUAfUAGfCfUAfUAfCfCAfU[3T] (AGGGAAUAUUAUAGAGUAUGUAUAGCUAUACCAU; 2'-fluoro at CU, RNA at AG, 3' {3T}, backbone not given here) [ARC282, minimized AMX(71)_A8] | 0.62 |  |
